Structures can show the parent of a compound that is named as a salt.
Biological target: T1, human HSD17B13 (Homo sapiens, UniProt Q7Z5P4)
T1 sequence (Q7Z5P4 20-300): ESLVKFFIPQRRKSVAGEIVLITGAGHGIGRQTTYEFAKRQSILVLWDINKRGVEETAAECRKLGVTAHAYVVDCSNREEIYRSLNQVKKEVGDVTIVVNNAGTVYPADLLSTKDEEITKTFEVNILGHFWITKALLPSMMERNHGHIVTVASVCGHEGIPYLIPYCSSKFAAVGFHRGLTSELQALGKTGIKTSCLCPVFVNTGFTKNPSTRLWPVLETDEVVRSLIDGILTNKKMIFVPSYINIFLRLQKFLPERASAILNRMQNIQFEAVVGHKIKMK
Assay: Substrate screening of steroid and bioactive lipid libraries against purified recombinant HSD17B13 (NADH-linked luciferase assay)
Assay type: biochemical
Conditions: for HSD17B13 Enzymatic Activity Relative Light Units: 500 μM NAD+, 100 ng enzyme, 3 hours at 23° C.; for HSD17B13 Enzymatic Activity Percent Estradiol Control: normalized to 50 μM estradiol after subtraction of 5% DMSO
Procedure, shortened: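 Recombinant human HSD17B13 (100 ng) incubated 3 h at 23° C in 0.2 M Tris-HCl pH 7.5 with 500 μM NAD+ and 5 μM bioactive lipid or 50 μM steroid (5% DMSO). NADH measured by luciferase luminescence after 1 h; values as percent of 50 μM estradiol control after 5% DMSO subtraction.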

[1] = Bioactive Lipid Library, 5 μM bioactive lipid (Estradiol Control 50 μM)
[2] = Bioactive Lipid Library, 5 μM bioactive lipid

| Compound | HSD17B13 Enzymatic Activity Relative Light Units [1] [RLU] | HSD17B13 Enzymatic Activity Percent Estradiol Control [2] [%] | HSD17B13 Enzymatic Activity Relative Light Units (Steroid Library, 50 μM steroid) [RLU] | HSD17B13 Enzymatic Activity Percent Estradiol Control (Steroid Library, 50 μM steroid) [%] |
| --- | --- | --- | --- | --- |
| CCC1OC1C/C=C\C/C=C\C/C=C\C/C=C\CCCC(=O)O (racemic) [(±)17(18)-EpETE] | 316240 | 2.19 | – | – |
| CCCCC[C@H](O)/C=C/[C@H]1[C@H](O)CC(=O)[C@@H]1C/C=C\CCCC(=O)Oc1ccc(NC(=O)c2ccccc2)cc1 [Prostaglandin E2 p-benzamidophenyl ester] | 404280 | 9.58 | – | – |
| CCCCCCCC[C@H](O)/C=C/C=C\C=C\[C@H](O)CCCC(=O)O [Leukotriene B3] | 2077280 | 141.82 | – | – |
| CCCCC/C=C\C=C\C(=O)CCCCCCCC(=O)O [9-OxoODE] | 359280 | 5.39 | – | – |
| [2H]C([2H])(/C=C\C[C@H]1[C@@H](O)CC(=O)O[C@@H]1/C=C/[C@@H](O)CCCCC)C([2H])([2H])CC(=O)O [11-dehydro Thromboxane B2-d4] | 366280 | 3.11 | – | – |
| CCCCC/C=C\C[C@H](O)/C=C/C=C\CCC(=O)O [tetranor-12(S)-HETE] | 379280 | 4.10 | – | – |
| CCCCCC(=O)CC[C@@H]1[C@@H](CC(=O)CCCCC(=O)O)[C@@H](O)C[C@H]1O [6,15-diketo-13,14-dihydro Prostaglandin F1α] | 262680 | −1.61 | – | – |
| CCCCC[C@H](O)/C=C/C=C\C/C=C\C/C=C\CCCC(=O)O [15(S)-HETE] | 1107240 | 24.49 | – | – |
| CCCCC[C@H](O)/C=C/[C@H]1[C@H](O)C[C@]2(C)C/C(=C\CCCC(=O)[O-])C[C@H]12.CCCCC[C@H](O)/C=C/[C@H]1[C@H](O)C[C@]2(C)C/C(=C\CCCC(=O)[O-])C[C@H]12.[Ca+2] [Ciprostene (calcium salt)] | 360560 | 6.12 | – | – |
| C[C@@H]1C[C@@]2(C)[C@@H](CC[C@@H]3[C@@H]2CC[C@@]2(C)[C@H]3CC[C@]2(C)O)CC1=O [Superdrol] | – | – | 105920 | −0.95 |
| CCCCC/C=C\C[C@H](O)/C=C/C=C\C/C=C\CCCC(=O)O (racemic) [(±)12-HETE] | 1324640 | 77.17 | – | – |
| CC/C=C\C/C=C\CC(O)/C=C/C=C\C/C=C\CCCC(=O)O (racemic) [(±)12-HEPE] | 761600 | 35.30 | – | – |
| CCCCC[C@H](O)/C=C/C=C\C/C=C\C/C=C\CCCC(=O)O (racemic) [(±)15-HETE] | 47880 | 30.81 | – | – |
| CC(C)OC(=O)CCC/C=C/C[C@@H]1[C@@H](/C=C/[C@@H](O)COc2cccc(C(F)(F)F)c2)[C@H](O)C[C@@H]1O (relative stereo) [5-trans Fluprostenol isopropyl ester] | 551400 | 21.21 | – | – |
| CC/C=C\C/C=C\C/C=C\C=C\C(O)C/C=C\CCCC(=O)O (racemic) [(±)8-HEPE] | 472800 | 13.83 | – | – |
| CC(=O)OC1=CC[C@H]2[C@@H]3CC[C@H]4CC=CC[C@]4(C)[C@H]3CC[C@]12C [5alpha-Androsta-2,16-dien-17-yl acetate] | – | – | 197640 | 0.65 |
| O=P(O)(O)O[C@@H]1C(O)[C@H](OP(=O)(O)O)[C@@H](O)C(O)[C@H]1O (stereo partly drawn) [D-myo-Inositol-1,3-diphosphate (sodium salt)] | 487280 | 12.25 | – | – |
| CCCCCC(O)C(O)C/C=C\C/C=C\C/C=C\CCCC(=O)O (racemic) [(±)14(15)-DiHET] | 403560 | 5.93 | – | – |
| CCCCCC(O)/C=C/C=C\CCCCCCCCCC(=O)O (racemic) [(±)15-HEDE] | 1430720 | 85.06 | – | – |
| CCCCC/C=C\C/C=C\C/C=C\C=C\[C@@H](O)CCCC(=O)O (racemic) [(±)5-HETE] | 431960 | 10.79 | – | – |
| CC/C=C\CC(O)/C=C/C=C\C/C=C\C/C=C\CCCC(=O)O (racemic) [(±)15-HEPE] | 578600 | 21.70 | – | – |
| CCCCC/C=C\C[C@@H](O)/C=C/C=C/C=C\[C@@H](O)CCCC(=O)NCCO [Leukotriene B4 Ethanolamide] | 1948920 | 131.68 | – | – |
